Experimental data reported in US20080194585A1, “Fungicidal Pyrazine Derivatives” (priority 2005, published 2008).
Marks after values point to notes of the source that are not given here.

How the values were obtained:
[1] = tested on: Pythium aphanidermatum; experiment: Test A: bluegrass pythium blight, preventive spray on bluegrass seedlings; conditions: for Test A disease control rating: 40 ppm (marked *), 100 = 100% disease control, 0 = no control; for pest or weed control at 200 ppm: Pythium aphanidermatum, 120 h, read-out: Test A disease control rating
[2] = tested on: Plasmopara viticola; experiment: Test D: grape downy mildew, spray after inoculation of grape seedlings; type: in vivo; conditions: 100 = 100% disease control; for Test D disease control rating: 40 ppm (marked *), 0 = no control; for pest or weed control at 200 ppm: Plasmopara viticola, 168 h, 0 = no control relative to controls, read-out: Test D disease control rating
Source text: Upon removal, disease ratings were made. […] A dash (-) indicates no test results.

[3] = tested on: Rhizoctonia oryzae; experiment: Test G: turf brown patch, preventive spray on creeping bent grass seedlings; conditions: 100 = 100% disease control; for Test G disease control rating: 40 ppm (marked *)
Protocol: (the causal agent of turf brown patch) and incubated in a saturated atmosphere at 27° C. for 24 h, and then moved to a growth chamber at 27° C. for 5 days, after which disease ratings were made.

[4] = tested on: Septoria tritici; experiment: Test J: wheat leaf blotch, preventive spray on wheat seedlings; type: in vivo; conditions: 40 ppm (marked *), 100 = 100% disease control, 0 = no control; for pest or weed control at 40 ppm: Zymoseptoria tritici, 528 h, read-out: Test J disease control rating
Source text: A dash (-) indicates no test results.

[5] = tested on: Phytophthora infestans; experiment: whole plant or invertebrate; type: in vivo; conditions: for Test F disease control rating: 40 ppm (marked *), 100 = 100% disease control, 0 = no control; for pest or weed control at 200 ppm: Phytophthora infestans, in Solanum lycopersicum, topical, 144 h, read-out: Test F disease control rating
[6] = tested on: Septoria nodorum; experiment: Test H: wheat glum blotch, preventive spray on wheat seedlings; conditions: 100 = 100% disease control; for Test H disease control rating: 40 ppm (marked *)
Protocol: (the causal agent of wheat glum blotch) and incubated in a saturated atmosphere at 20° C. for 48 h, and then moved to a growth chamber at 22° C. for 5 days, after which disease ratings were made.

[7] = tested on: Botrytis cinerea; experiment: Test E: tomato botrytis, preventive spray on tomato seedlings; conditions: for Test E disease control rating: 40 ppm (marked *), 100 = 100% disease control, 0 = no control
[8] = tested on: Colletotrichum orbiculare; experiment: Test B: cucumber Colletotrichum anthracnose, preventive spray on cucumber seedlings; conditions: 100 = 100% disease control; for Test B disease control rating: 40 ppm (marked *)
[9] = tested on: fusarium graminearium; experiment: Test I: wheat head scab, preventive spray on wheat seedlings; conditions: 100 = 100% disease control; for Test I disease control rating: 40 ppm (marked *), 0 = no control; for pest or weed control at 200 ppm: Fusarium, in Triticum aestivum, topical, 192 h, read-out: Test I disease control rating, 200 ppm, 0 = no control relative to controls
Protocol: (the causal agent of wheat head scab) and incubated in a saturated atmosphere at 20° C. for 72 h, and then moved to a growth chamber at 22° C. for 5 days, after which disease ratings were made.

[10] = tested on: Erysiphe graminis f. sp. tritici; experiment: Test L: wheat powdery mildew, preventive spray on wheat seedlings; conditions: 100 = 100% disease control; for Test L disease control rating: 40 ppm (marked *)
[11] = Botrytis cinerea, in Solanum lycopersicum, topical, 72 h, read-out: Test E disease control rating

SMILES	Test A disease control rating [1]	Test D disease control rating [2]	Test G disease control rating ([3]; 0 = no control)	Test J disease control rating [4]	Test F disease control rating [5]	Test H disease control rating ([6]; 0 = no control)	Test E disease control rating [7]	Test B disease control rating ([8]; 0 = no control)	Test I disease control rating [9]	Test L disease control rating ([10]; 0 = no control)	also measured
Nn1c(-c2c(F)cccc2F)c(Cl)nc(-n2cccn2)c1=O [Compound 400, 1-Amino-5-chloro-6-(2,6-difluorophenyl)-3-(1H-pyrazol-1-)-2(1H)-pyrazinone]	0* %	0* %	0* %	0* %	0* %	0* %	0* %	0* %	0* %		
NC(=O)c1nc(Cl)c(-c2c(F)cc(F)cc2F)n(-c2cccc(F)c2)c1=O [Compound 414, 6-Chloro-4-(3-fluorophenyl)-3,4-dihydro-3-oxo-5-(2,4,6-trifluorophenyl)pyrazinecarboxamide]											pest or weed control at 40 ppm ([10]; Blumeria graminis, in Triticum aestivum, 168 h, read-out: Test L disease control rating, 40 ppm (marked *), 0 = no control): 98%; pest or weed control at 200 ppm [1]: 95%; pest or weed control at 200 ppm [2]: 40%; pest or weed control at 40 ppm ([3]; Waitea circinata, in Agrostis stolonifera, topical, 144 h, read-out: Test G disease control rating, 40 ppm (marked *), 0 = no control): 0%; pest or weed control at 40 ppm [4]: 97%; pest or weed control at 200 ppm [5]: 85%; pest or weed control at 40 ppm ([6]; Parastagonospora nodorum, in Triticum aestivum, topical, 168 h, read-out: Test H disease control rating, 40 ppm (marked *), 0 = no control): 0%; pest or weed control at 40 ppm [7, 11]: 99%; pest or weed control at 40 ppm ([8]; Colletotrichum orbiculare, in Cucumis sativus, 144 h, read-out: Test B disease control rating, 40 ppm (marked *), 0 = no control): 0%; pest or weed control at 200 ppm [9]: 35%
CCC(C)Cn1c(-c2ccc(F)cc2F)c(C)nc(C#N)c1=NC(C)=O (stereo not shown) [Compound 430, N-[3-Cyano-6-(2,4-difluorophenyl)-5-methyl-1-(2-methylbutyl)-2(1H)-pyrazinylidene]acetamide]											pest or weed control at 200 ppm ([10]; Blumeria graminis, in Triticum aestivum, 168 h, read-out: Test L disease control rating, 200 ppm, 0 = no control relative to controls): 93%; pest or weed control at 200 ppm [1]: 0%; pest or weed control at 200 ppm [2]: 0%; pest or weed control at 200 ppm ([3]; Waitea circinata, in Agrostis stolonifera, topical, 144 h, read-out: Test G disease control rating, 200 ppm, 0 = no control relative to controls): 0%; pest or weed control at 40 ppm [4]: 86%; pest or weed control at 200 ppm [5]: 0%; pest or weed control at 200 ppm ([6]; Parastagonospora nodorum, in Triticum aestivum, topical, 168 h, read-out: Test H disease control rating, 200 ppm, 0 = no control relative to controls): 0%; pest or weed control at 200 ppm [7, 11]: 96%; pest or weed control at 200 ppm ([8]; Colletotrichum orbiculare, in Cucumis sativus, 144 h, read-out: Test B disease control rating, 200 ppm, 0 = no control relative to controls): 0%; pest or weed control at 200 ppm [9]: 0%
O=c1c(-n2cccn2)nc(Cl)c(-c2c(F)cccc2F)n1-c1ccc(F)c(F)c1 [compound 388]	0* %	0* %	0* %	100* %	0* %	97* %	99* %	67* %	0* %	0* %	
Cc1ccn(-c2nc(Cl)c(-c3c(F)cccc3F)n(-c3ccc(F)c(F)c3)c2=O)n1 [compound 389]	0* %	0* %	31* %	100* %	0* %	94* %	99* %	98* %	0* %	0* %	
O=c1c(-n2cccn2)nc(Cl)c(-c2c(F)cc(F)cc2F)n1-c1cc(Cl)cc(Cl)c1 [compound 404]		0* %	9* %	97* %	0* %	100* %	98* %	0* %	0* %	0* %	
Cc1ccn(-c2nc(Cl)c(-c3c(F)cc(F)cc3F)n(-c3cc(Cl)cc(Cl)c3)c2=O)n1 [compound 405]		0* %	17* %	99* %	0* %	98* %	99* %	36* %	0* %	0* %	
O=c1c(-n2cccn2)nc(Cl)c(-c2c(F)cc(F)cc2F)n1-c1ccc(F)c(Cl)c1 [compound 406]		0* %	50* %	100* %	0* %	99* %	99* %	84* %	0* %	0* %	
